Data from patent US7947854B2, “Bis-cationic compounds and use thereof” (The University of Sydney, priority 2003, dated 2011).
Where two headings read alike, the source gives them in different places. Marks after values point to notes of the source that are not given here.

Experiments:
[1] = biological target: T1, Porcine pancreatic phospholipase A2 (Sus scrofa, UniProt P00592); assay: Pancreatic phospholipase assay; format: biochemical; conditions: read-out: ppPLA2, percentage inhibition of activity
T1 construct: purchased Sigma, St. Louis MO, USA
Method: Pancreatic phospholipase assay. Porcine pancreatic phospholipase A2 suspension in 3.2M ammonium sulfate (2.9 mg protein/mL, Sigma St.Louis Mo., USA) was used. One part of well mixed enzyme suspension was added to 4 parts of buffer (10 mM Tris/HCl, pH 8.2; 10 mM CaCl2. Activity and inhibition by test compounds was then measured by the radiometric method described in Example 2 for fungal PLB activity. However, 25 μL enzyme solution was used, and the reaction time was 1 hour. These conditions result in ˜60% substrate conversion in the inhibitor-free control.

[2] = test system: Cryptococcus neoformans ATCC 90112; assay: Antifungal susceptibility testing, microdilution MIC; format: cell-based; conditions: Cryptococcus neoformans, ATCC90112
Outline: (§1)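 Standard microdilution method, run in duplicate, using serial dilutions of cationic compounds.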

[3] = test system: Candida albicans ATCC 10231; assay: as above; format: cell-based; conditions: Candida albicans, ATCC10231
Outline: as §1

[4] = test system: secreted phospholipase B (PLB activity); assay: Radiometric assay, secreted PLB activity; format: biochemical, Cryptococcus neoformans H99; conditions: for PLB, percentage inhibition of activity: Secretory Cryptococcal H99 Phospholipase; for % Inhibition PLB, Secretory Enzyme: pH 4
Outline: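 Secreted enzyme was taken from cell-free supernatant of Cryptococcus isolate H99 cells incubated 24 h at 37° C. Reactions at 37° C, pH 4.0 imidazole acetate, used 800 μM DPPC with [14C]-dipalmitoyl PC and 1 μg protein for 22 min. PLB was measured as radiolabelled PC loss by TLC, with inhibition expressed versus inhibitor-free control; compounds were tested at 25 and 250 μM, then 2.5 and 0.25 μM.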

[5] = Table 6, no visible growth after 72 h at 35° C., read-out: MIC C. neof. ATCC 90112
[6] = Table 7, read-out: MIC (μM) Crypto. (ATCC 90112)
[7] = Table 6, no visible growth after 48 h at 35° C., read-out: MIC C. albicans ATCC 10231
[8] = Table 7, read-out: MIC (μM) C. alb. (10231)

T1 sequence (P00592 23-146): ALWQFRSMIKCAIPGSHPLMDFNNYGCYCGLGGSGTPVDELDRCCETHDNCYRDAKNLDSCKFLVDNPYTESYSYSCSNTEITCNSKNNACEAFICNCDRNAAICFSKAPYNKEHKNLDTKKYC

Row | SMILES | inhibition at 0.25 µM [1] | inhibition at 2.5 µM [1] | inhibition at 25 µM [1] | inhibition at 250 µM [1] | MIC [2, 5] | MIC [2, 6] | MIC [3, 7] | MIC [3, 8] | PLB assay (% inhibition) ([4]; 0.25 μM) | PLB, percentage inhibition of activity ([4]; 0.25 μM) | PLB assay (% inhibition) ([4]; 2.5 μM) | PLB, percentage inhibition of activity ([4]; 2.5 μM) | PLB assay (% inhibition) ([4]; 25 μM) | PLB, percentage inhibition of activity ([4]; 25 μM) | PLB assay (% inhibition) ([4]; 250 μM) | PLB, percentage inhibition of activity ([4]; 250 μM) | other results
1 | CCCC[P+](CCCC)(CCCC)CCCCCCCCCCCC[P+](CCCC)(CCCC)CCCC [Compound 1, 1,12-bis(tributylphosphonium)dodecane dibromide] | 0% | 5% | 62% | 97% | 2.5 µM | 2.5 µM | 8.8 µM | 8.8 µM | 0% | 0% | 0% | 0% | 35% | 35% | 55% | 55% | % Inhibition PLB, Secretory Enzyme ([4]; 0.25 μM): 0%; % Inhibition PLB, Secretory Enzyme ([4]; 2.5 μM): 0%; % Inhibition PLB, Secretory Enzyme ([4]; 25 μM): 35.2* %; % Inhibition PLB, Secretory Enzyme ([4]; 250 μM): 55.0* %
2 | CCCC[N+](CCCC)(CCCC)CCCCCCCCCCCC[N+](CCCC)(CCCC)CCCC [Compound 3, 1,12-bis(tributylammonium)do-decane dibromide] | 0% | 0% | 36% | 86% | 2.5 µM | – | 11 µM | – | – | 20% | – | 65% | – | 80% | – | 85% | –
3 | CCCC[N+](CCCC)(CCCC)CCCCCCCCCCCC[N+](CCCC)(CCCC)CCCC [1,12-Bis-(tributylammonium)dodecane dichloride] | – | – | – | – | – | 2.5 µM | – | 5.5 µM | 0% | – | 6% | – | 65% | – | 85% | – | PLB assay (% inhibition) ([4]; 6.7 μM): 35%; PLB assay (% inhibition) ([4]; 12.5 μM): 56%
